Legend:
[1] = system: Raw 264.7 cells; assay: NO production inhibitory ability, LPS-treated cells, NO assay kit; assay type: cell-based; conditions: positive control, 20 μg/mL, LPS 1 μg/mL, 24 hours
Experimental: Raw 264.7 cells were diluted for each concentration, treated with 1 μg/mL of LPS, and cultured for 24 hours. The NO production inhibitory ability was evaluated as follows using a NO assay kit (Table 13).
The confirmation of skin soothing and inflammation improvement effects was performed in the same manner as in Example 6-1 (Table 14).

[2] = DPPH free radical scavenging; assay type: biochemical; conditions: 0.15 mM DPPH, room temperature, 30 minutes, absorbance at 540 nm
[3] = system: B16f10 melanocytes; assay: Melanin production inhibition; assay type: cell-based; conditions: treatment concentration 0.02%; 72 hours
Experimental: Samples were diluted in B16f10 melanocytes at each concentration, treated for 72 hours, and cultured, and then, the amount of melanin pigment present in melanocytes was quantified. The melanin production inhibitory rate was calculated in comparison to the total protein amount, and the values thereof were measured as percentage (%) based on the DMSO control (DMEM containing 0% serum) set to 100%.
In order to measure the degree of decrease in the amount of melanin pigment in the Saccharomyces cerevisiae KCTC14780BP fermented product and the fraction containing the yeast polypeptide, the inhibition rate of melanin production was compared upon treatment with the positive control group (Arbutin 200 ppm (Lim Y. J. et al., 2009, Arch Pharm Res.)), the Saccharomyces cerevisiae KCTC14780BP fermented product and the fraction containing the yeast polypeptide (Table 15).

[4] = system: human dermal fibroblast; assay: Collagen synthesis rate, Procollagen Type I C-peptide (PIP) EIA kit; assay type: cell-based; conditions: positive control, 48 hours
Experimental: Samples were treated with human dermal fibroblast for 48 hours at each concentration. The collagen synthesis rate was measured using a Procollagen Type I C-peptide (PIP) EIA kit. The collagen synthesis efficacy of the samples was calculated and measured as values in comparison with the negative control group (DMEM containing 0% serum).
In order to confirm the collagen synthesis enhancement effect of the Saccharomyces cerevisiae KCTC14779BP fermented product, the collagen synthesis rate was compared for normal cells, and normal cells treated with TGF-β, Saccharomyces cerevisiae KCTC14779BP fermented product, and normal yeast (Saccharomyces cerevisiae KCTC7296) fermented product (Table 3).
The confirmation of collagen synthesis enhancement effect was performed in the same manner as in Example 3-1, and the collagen synthesis rate was compared for normal cells, and normal cells treated with TGF-β, Saccharomyces cerevisiae KCTC14780BP fermented product, and fraction containing the yeast polypeptide (Table 4).
The confirmation of collagen synthesis enhancement effect was performed in the same manner as in Example 3-1, and the collagen synthesis rate was compared for normal cells, and normal cells treated with TGF-β, Lactobacillus fructivorans KCTC14776BP fermented product, and normal Lactobacillus (Lactobacillus plantarum KCTC3108) fermented product (Table 5).
The confirmation of collagen synthesis enhancement effect was performed in the same manner as in Example 3-1, and the collagen synthesis rate was compared for normal cells, and normal cells treated with TGF-β, Bacillus paramycoides KCTC14777BP fermented product, and normal Bacillus (Bacillus megaterium KCTC3007) fermented product (Table 6).

[5] = system: loricrin (LOR); assay: Loricrin (LOR) gene expression in TNF-a-treated HaCaT cells, qPCR; assay type: cell-based, human; conditions: Control: TNF-a 10 pg/mL alone; untreated group = 1
Experimental: After treating HaCaT cells with TNF-a (10 pg/mL) for 3 hours, samples were diluted for each concentration, mixed with TNF-a-treated HaCaT cells, and cultured for 24 hours. The degree of increase in the expression of loricrin (LOR), a major component of the skin barrier, was quantified using qPCR (Table 18).

[6] = biological target: T1, TRPV1 (transient receptor potential vanilloid-1) (Homo sapiens, UniProt Q8NER1); assay: TRPV1 activity, calcium influx detection assay in HEK 293T-TRPV1 cells; assay type: cell-based; conditions: untreated group 83.57
T1 construct: expressed in transfected cells; host or cells: HEK 293T-TRPV1 cells

[7] = system: human keratinocyte HaCaT; assay: Hyaluronic acid synthesis, Quantikine ELISA Hyaluronan; assay type: cell-based; conditions: positive control, 1 ppm, 72 hours
Experimental: Samples were treated with human keratinocyte HaCaT for 72 hours at each concentration. Hyaluronic acid synthesis was compared with the control group (DMEM treatment containing 0% serum) using Quantikine ELISA Hyaluronan from R&D Systems to quantify the moisturizing ability (Table 7).
The confirmation of hyaluronic acid synthesis enhancement effect was performed in the same manner as in Example 4-1 (Table 8).
The confirmation of hyaluronic acid synthesis enhancement effect was performed in the same manner as in Example 4-1 (Table 9).
The confirmation of hyaluronic acid synthesis enhancement effect was performed in the same manner as in Example 4-1 (Table 10).
The confirmation of hyaluronic acid synthesis enhancement effect was performed in the same manner as in Example 4-1 (Table 11).

T1 sequence (Q8NER1 whole entry, species assumed): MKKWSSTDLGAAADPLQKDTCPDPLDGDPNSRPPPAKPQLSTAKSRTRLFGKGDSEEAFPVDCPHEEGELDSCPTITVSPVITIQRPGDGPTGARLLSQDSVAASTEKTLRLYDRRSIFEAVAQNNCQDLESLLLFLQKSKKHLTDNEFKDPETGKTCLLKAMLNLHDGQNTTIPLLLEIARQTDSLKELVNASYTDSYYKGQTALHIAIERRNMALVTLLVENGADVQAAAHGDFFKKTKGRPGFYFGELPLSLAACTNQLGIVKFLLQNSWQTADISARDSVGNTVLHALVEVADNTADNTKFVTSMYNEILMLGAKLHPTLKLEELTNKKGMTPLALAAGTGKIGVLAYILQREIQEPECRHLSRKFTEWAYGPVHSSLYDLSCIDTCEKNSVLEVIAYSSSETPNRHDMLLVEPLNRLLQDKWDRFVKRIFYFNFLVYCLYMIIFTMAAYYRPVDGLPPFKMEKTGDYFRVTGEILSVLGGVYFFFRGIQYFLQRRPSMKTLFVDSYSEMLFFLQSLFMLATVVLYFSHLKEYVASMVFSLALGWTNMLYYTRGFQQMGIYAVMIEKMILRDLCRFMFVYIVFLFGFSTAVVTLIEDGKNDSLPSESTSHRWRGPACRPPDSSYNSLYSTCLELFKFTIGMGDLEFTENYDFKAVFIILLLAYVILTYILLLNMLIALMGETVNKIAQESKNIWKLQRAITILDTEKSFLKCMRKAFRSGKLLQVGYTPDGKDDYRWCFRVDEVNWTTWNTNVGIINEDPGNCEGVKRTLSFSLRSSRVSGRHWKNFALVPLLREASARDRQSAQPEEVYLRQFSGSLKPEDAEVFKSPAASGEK

## CNC(=N)NCCC[C@H](N)C(=O)O [L-NMMA]
[1]; Table 13
  NO production inhibitory ability (% of control): 47.9 % of control
[1]; Table 14
  NO production inhibitory ability (% of control): 47.9 % of control

## O=C1O[C@H]([C@@H](O)CO)C(O)=C1O [Vitamin C]
[2]
  IC 50 (%): 0.000606 ± 0.00006%

## OC[C@H]1O[C@@H](Oc2ccc(O)cc2)[C@H](O)[C@@H](O)[C@@H]1O [Arbutin]
[3]
  Melanin Production Inhibition (%): 56.4%

## TGF-β
[4]; Table 3, 10 ppb, vs negative control (DMEM 0% serum)
  Collagen Synthesis Rate (% of control): 27.55 % of control
[4]; Table 4, 10 ng/mL
  Collagen Synthesis Rate (% of control): 23.92 % of control
[4]; Table 5, 10 ppb
  Collagen Synthesis Rate (% of control): 24.6 % of control
[4]; Table 6, 10 ppb
  Collagen Synthesis Rate (% of control): 20.84 % of control

## TNF-a
[5]
  LOR Gene Expression (Relative mRNA level, of control): 0.39

## COc1cc(CNC(=O)CCCC/C=C/C(C)C)ccc1O [Capsaicin]
[6]; 10 μM, TRPV1 activity induction
  TRPV1 Activity (RFU, relative fluorescent unit): 101.86 RFU

## Capsazepin
[6]; 3 μM, TRPV1 activity inhibition
  TRPV1 Activity (RFU, relative fluorescent unit): 75.91 RFU

## CC1=C(/C=C/C(C)=C/C=C/C(C)=C/C(=O)O)C(C)(C)CCC1 [Retinoic acid]
[7]; Table 7
  Hyaluronic Acid Synthesis Rate (% of control): 13.6 % of control
[7]; Table 8
  Hyaluronic Acid Synthesis Rate (% of control): 17.8 % of control
[7]; Table 9
  Hyaluronic Acid Synthesis Rate (% of control): 27.6 % of control
[7]; Table 10
  Hyaluronic Acid Synthesis Rate (% of control): 22.0 % of control
[7]; Table 11
  Hyaluronic Acid Synthesis Rate (% of control): 15.4 % of control

Source: patent US12611372B2, “Strain and use thereof” (LG HOUSEHOLD & HEALTH CARE LTD., priority 2021, dated 2026)
